Experimental data reported in PMC6754293 (Cell chemical biology, 2019).

Tests used:
[1] = system: tyrosine phosphorylated FER in H1155 cells; experiment: pY immunoprecipitation of FER; type: cell-based; settings: 3 hours, 1 μM
FAK autophosphorylation = FAK autophosphorylation immunoblot; type: cell-based; settings: at the concentrations used
NSCLC cell lines = experiment: viability-based drug screen and dose response; settings: 72 hours treatment; screen at 0.5 μM and 2.5 μM, confirmed in 14 NSCLC cell lines
SCLC cell lines = experiment: viability of SCLC cell lines; type: cell-based; settings: 72 hours treatment
A427 cells = experiment: crystal violet clonogenic assay; type: cell-based; settings: 10 days
[2] = system: pERK at T202/Y204 (substrate sites of MEK1/2); experiment: Western blot of pERK; type: cell-based; settings: H1155 and A427 cells; 1 hour; 0.1, 0.5 and 1 μM
[3] = system: MET autophosphorylation in H1648 cells
H1155 cells = experiment: H1155 cell viability with tool compounds alone or combined; type: cell-based; settings: compared to AURKB inhibition
MET = MET (Homo sapiens, UniProt P08581); experiment: pulldowns with H1648 lysate and in vitro MET kinase assays of probes; type: biochemical
Sequence of MET (P08581 25-1390): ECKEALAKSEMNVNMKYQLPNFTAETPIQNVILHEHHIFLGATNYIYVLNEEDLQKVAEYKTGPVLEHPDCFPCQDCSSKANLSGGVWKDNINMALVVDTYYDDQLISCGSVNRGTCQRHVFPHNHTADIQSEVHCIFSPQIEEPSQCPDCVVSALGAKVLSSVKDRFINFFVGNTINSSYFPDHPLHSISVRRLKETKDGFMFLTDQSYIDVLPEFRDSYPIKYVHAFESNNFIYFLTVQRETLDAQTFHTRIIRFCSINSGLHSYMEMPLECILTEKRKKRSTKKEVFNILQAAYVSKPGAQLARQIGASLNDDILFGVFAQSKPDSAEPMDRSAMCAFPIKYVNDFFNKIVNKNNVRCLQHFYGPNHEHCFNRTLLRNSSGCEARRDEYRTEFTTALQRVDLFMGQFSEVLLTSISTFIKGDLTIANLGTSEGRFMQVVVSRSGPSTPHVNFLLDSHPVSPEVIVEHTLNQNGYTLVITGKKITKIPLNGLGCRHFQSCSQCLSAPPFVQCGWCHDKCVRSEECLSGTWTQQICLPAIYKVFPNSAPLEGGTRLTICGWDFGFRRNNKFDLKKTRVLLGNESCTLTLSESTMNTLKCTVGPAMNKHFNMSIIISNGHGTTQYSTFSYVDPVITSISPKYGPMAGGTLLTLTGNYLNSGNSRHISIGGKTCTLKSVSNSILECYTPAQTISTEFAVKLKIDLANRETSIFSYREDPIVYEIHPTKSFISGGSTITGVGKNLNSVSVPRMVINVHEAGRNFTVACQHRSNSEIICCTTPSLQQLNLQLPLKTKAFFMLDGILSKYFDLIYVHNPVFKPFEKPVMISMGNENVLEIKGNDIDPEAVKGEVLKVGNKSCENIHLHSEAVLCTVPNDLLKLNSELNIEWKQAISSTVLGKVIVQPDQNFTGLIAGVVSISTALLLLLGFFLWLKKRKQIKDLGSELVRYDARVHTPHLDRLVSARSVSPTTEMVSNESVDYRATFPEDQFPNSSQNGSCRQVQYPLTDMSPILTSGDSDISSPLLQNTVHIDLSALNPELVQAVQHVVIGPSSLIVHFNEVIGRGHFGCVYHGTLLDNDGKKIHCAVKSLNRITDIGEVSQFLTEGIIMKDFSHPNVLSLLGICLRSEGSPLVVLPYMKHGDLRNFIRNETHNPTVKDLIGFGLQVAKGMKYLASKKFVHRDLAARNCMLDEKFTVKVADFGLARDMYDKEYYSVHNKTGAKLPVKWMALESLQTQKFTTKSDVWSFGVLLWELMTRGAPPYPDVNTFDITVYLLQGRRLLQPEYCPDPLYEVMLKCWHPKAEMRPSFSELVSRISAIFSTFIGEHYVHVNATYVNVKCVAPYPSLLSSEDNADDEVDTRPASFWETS

H1155 and A427 cells [4] = type: cell-based; settings: 0.5 μM and 1 μM, 24 hours (blot), 24 and 48 hours (imaging)
MEK1 = MEK1 (Homo sapiens, UniProt Q02750); experiment: in vitro kinase assay MEK1; type: biochemical; settings: 10 μM ATP; compared with cabozantinib
Sequence of MEK1 (Q02750 whole entry): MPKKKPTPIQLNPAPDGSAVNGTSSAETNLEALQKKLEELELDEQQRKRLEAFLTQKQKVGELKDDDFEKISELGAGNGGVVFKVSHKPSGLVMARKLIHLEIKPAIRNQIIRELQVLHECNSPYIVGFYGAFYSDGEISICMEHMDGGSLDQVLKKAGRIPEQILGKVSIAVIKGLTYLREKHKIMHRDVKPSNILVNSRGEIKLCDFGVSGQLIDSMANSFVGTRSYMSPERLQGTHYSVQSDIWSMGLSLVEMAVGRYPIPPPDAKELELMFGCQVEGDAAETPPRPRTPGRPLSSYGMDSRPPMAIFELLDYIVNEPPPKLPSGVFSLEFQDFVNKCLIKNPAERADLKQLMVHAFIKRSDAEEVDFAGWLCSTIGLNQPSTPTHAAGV

SRC = SRC (Homo sapiens, UniProt P12931); experiment: in vitro kinase assay SRC; type: biochemical; settings: 10 μM ATP; compared with cabozantinib
Sequence of SRC (P12931 whole entry): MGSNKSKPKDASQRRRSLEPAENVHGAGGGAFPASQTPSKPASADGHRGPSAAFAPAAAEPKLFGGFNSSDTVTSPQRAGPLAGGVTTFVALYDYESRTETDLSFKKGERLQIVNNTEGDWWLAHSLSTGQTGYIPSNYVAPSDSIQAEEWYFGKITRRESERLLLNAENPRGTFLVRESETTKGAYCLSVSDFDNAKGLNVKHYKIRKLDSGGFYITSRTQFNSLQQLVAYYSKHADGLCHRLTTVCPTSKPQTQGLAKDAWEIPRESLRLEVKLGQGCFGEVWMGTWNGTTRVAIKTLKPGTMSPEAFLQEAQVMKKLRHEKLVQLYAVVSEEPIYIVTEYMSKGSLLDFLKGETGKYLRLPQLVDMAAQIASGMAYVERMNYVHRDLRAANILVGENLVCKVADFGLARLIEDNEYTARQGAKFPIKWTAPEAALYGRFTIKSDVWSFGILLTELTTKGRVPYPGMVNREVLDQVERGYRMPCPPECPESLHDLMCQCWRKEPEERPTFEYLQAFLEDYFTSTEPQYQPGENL

FER = FER (Homo sapiens, UniProt P16591); experiment: in vitro kinase assay FER; type: biochemical; settings: 10 μM ATP; compared with cabozantinib
Sequence of FER (P16591 whole entry): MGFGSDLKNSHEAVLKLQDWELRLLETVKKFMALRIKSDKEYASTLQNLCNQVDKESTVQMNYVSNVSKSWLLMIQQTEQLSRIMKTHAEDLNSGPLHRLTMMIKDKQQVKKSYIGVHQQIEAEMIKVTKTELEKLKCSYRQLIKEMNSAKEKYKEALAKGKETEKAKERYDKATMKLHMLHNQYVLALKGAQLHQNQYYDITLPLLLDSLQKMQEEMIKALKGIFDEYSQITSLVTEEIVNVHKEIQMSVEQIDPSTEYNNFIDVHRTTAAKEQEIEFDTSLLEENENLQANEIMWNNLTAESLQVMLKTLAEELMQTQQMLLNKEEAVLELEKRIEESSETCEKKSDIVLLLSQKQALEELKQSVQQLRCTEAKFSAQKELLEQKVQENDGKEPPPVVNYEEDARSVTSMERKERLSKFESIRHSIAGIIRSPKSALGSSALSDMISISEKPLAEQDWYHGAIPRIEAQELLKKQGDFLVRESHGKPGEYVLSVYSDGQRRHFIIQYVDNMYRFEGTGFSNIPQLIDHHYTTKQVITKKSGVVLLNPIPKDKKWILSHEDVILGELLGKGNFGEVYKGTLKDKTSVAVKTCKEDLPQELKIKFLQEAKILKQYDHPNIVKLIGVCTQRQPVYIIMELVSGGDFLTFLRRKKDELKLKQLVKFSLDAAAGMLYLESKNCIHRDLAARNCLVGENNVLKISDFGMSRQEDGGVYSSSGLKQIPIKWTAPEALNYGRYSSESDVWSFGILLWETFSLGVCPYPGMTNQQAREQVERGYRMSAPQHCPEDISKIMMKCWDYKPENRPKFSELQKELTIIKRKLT

AURKA = molecular target: T1, AURKA (Homo sapiens, UniProt O14965); experiment: in vitro kinase assay AURKA; type: biochemical; settings: 10 μM ATP; compared with cabozantinib
T1 sequence (O14965 1-403): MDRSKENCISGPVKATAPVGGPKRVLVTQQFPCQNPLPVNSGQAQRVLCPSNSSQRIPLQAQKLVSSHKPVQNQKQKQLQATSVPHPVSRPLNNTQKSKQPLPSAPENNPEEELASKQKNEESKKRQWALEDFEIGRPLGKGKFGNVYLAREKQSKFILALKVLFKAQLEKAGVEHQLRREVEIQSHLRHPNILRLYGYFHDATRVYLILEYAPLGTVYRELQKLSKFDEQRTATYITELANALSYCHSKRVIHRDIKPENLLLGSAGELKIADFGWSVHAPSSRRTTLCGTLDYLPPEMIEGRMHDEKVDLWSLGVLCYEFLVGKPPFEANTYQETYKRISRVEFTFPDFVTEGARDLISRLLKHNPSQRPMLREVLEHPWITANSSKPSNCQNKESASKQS

AURKB = AURKB (Homo sapiens, UniProt Q96GD4); experiment: in vitro kinase assay AURKB; type: biochemical; settings: 10 μM ATP; compared with cabozantinib
Sequence of AURKB (Q96GD4 whole entry): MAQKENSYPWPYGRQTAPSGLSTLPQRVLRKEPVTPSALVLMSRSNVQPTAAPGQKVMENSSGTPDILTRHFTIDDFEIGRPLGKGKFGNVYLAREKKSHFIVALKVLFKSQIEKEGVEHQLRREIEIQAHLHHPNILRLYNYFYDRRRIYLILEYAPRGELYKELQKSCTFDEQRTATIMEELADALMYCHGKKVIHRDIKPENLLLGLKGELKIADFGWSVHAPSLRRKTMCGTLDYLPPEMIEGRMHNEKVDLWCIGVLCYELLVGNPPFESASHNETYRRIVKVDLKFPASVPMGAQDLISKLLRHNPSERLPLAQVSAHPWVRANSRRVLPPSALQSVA

[5] = system: SRC autophosphorylation at Y419 in H1155 cells; experiment: SRC autophosphorylation at Y419; type: cell-based; settings: data not shown
[6] = system: histone H3 at S10 (downstream target of AURKB); experiment: Western blot of pH3; type: cell-based; settings: H1155 cells, 6 hours, 0.05, 0.25 and 0.5 μM
H1155 and A427 cells [7] = experiment: cell cycle analysis; type: cell-based; settings: 6 hours
MEK2 = settings: read-out: IC50 MEK2; second value of MEK1/2 pair; ref Yamaguchi et al., 2011; cited from earlier work

## CNC(=O)c1c(F)cccc1Nc1nc(Nc2cc3c(cc2OC)CCN3C(=O)CN(C)C)nc2[nH]ccc12 [GSK1838705A]
[1]
  phosphorylation changes of FER (pY immunoprecipitation): phosphorylation changes of FER
FAK autophosphorylation
  FAK autophosphorylation: not affected

## OCCn1cc(-c2cnc3nnn(Cc4ccc5ncccc5c4)c3n2)cn1 [PF-04217903]
NSCLC cell lines
  effect on viability of NSCLC cell lines: little to no effects
SCLC cell lines
  effect on viability of SCLC cells: no effect on SCLC cells

## CC1(C)CNc2cc(NC(=O)c3cccnc3NCc3ccncc3)ccc21 [motesanib]
NSCLC cell lines
  effect on viability of NSCLC cell lines: little to no effects
SCLC cell lines
  effect on viability of SCLC cells: no effect on SCLC cells

## COc1cc2nccc(Oc3ccc(NC(=O)C4(C(=O)Nc5ccc(F)cc5)CC4)cc3)c2cc1OC [cabozantinib]
NSCLC cell lines
  effect on viability of NSCLC cell lines: little to no effects
A427 cells
  inhibition of A427 cell growth, clonogenic assay: in contrast to cabozantinib
[2]
  phosphorylation of pERK at T202/Y204: in contrast to cabozantinib
SCLC cell lines
  effect on viability of SCLC cells: in contrast to cabozantinib
[3]
  inhibition of MET autophosphorylation: inhibited MET autophosphorylation

## COc1cc(Nc2ncc3c(n2)-c2ccc(Cl)cc2C(c2c(F)cccc2OC)=NC3)ccc1C(=O)O [alisertib]
H1155 cells
  decrease of H1155 viability on combining with FER and MEK1/2 inhibition: only in a minor decrease of viability

## COc1cc2c(Oc3ccc(N(C(=O)C4(C(N)=O)CC4)c4ccc(F)cc4)cc3F)ccnc2cc1OCCCN1CCN(CCCN)CC1 [i-foretinib, N-(4-((7-(3-(4-(3-aminopropyl)piperazin-1-yl)propoxy)-6-methoxyquinolin-4-yl)oxy)-3-fluorophenyl)-N-(4-fluorophenyl)cyclopropane-1,1-dicarboxamide]
MET
  ability to bind and inhibit MET: retained their ability to bind and inhibit MET

## COc1cc2c(Oc3ccc(NC(=O)C4(C(=O)Nc5ccc(F)cc5)CC4)cc3F)ccnc2cc1OCCCN1CCOCC1 [foretinib]
NSCLC cell lines
  effect on viability of NSCLC cell lines: much higher cellular activity compared to cabozantinib
A427 cells
  inhibition of A427 cell growth, clonogenic assay: inhibited A427 cell growth
H1155 and A427 cells [4]
  induction of apoptosis (PARP1 and caspase 3 cleavage, caspase 3/7): induced apoptosis
MEK1
  MEK1 inhibition, in vitro kinase assay: more potently inhibited by foretinib than by cabozantinib
SRC
  SRC inhibition, in vitro kinase assay: more potently inhibited by foretinib than by cabozantinib
FER
  FER inhibition, in vitro kinase assay: more potently inhibited by foretinib than by cabozantinib
AURKA
  AURKA inhibition, in vitro kinase assay: more potently inhibited by foretinib than by cabozantinib
AURKB
  AURKB inhibition, in vitro kinase assay: more potently inhibited by foretinib than by cabozantinib
[5]
  SRC autophosphorylation at Y419: did not decrease SRC autophosphorylation
[2]
  phosphorylation of pERK at T202/Y204: decreased phosphorylation of pERK
[6]
  phosphorylation of histone H3 at S10: decreased phosphorylation of histone H3 at S10
H1155 and A427 cells [7]
  drug-induced cell cycle changes: pronounced accumulation of cells in G2 phase
[1]
  phosphorylation changes of FER (pY immunoprecipitation): phosphorylation changes of FER
FAK autophosphorylation
  FAK autophosphorylation: not affected
SCLC cell lines
  effect on viability of SCLC cells: potently inhibited viability of MYC-amplified SCLC cells, but not SCLC cells without MYC amplification
